This note sets out measurements from patent US9365553B2, “Heterocyclic compound and H1 receptor antagonist” (Aska Pharmaceutical Co., Ltd., priority 2010, dated 2016).

pIC50: −log10 of the molar value.

The target of one assay is T1, rat H1 receptor (Rattus norvegicus, UniProt P31390).
T1 construct: An H1 receptor membrane preparation was prepared from rat cerebrum; from tissue; host or cells: rat cerebrum
The assay is described as follows: Rat H1 receptor affinity test (Test Example 1). Type of assay: binding. The note with it: rat cerebrum membrane preparation, [3H]-pyrilamine 2 nmol/L. How it is done: An H1 receptor membrane preparation was prepared from rat cerebrum. […] To the resulting each sample, 50 μL of 8 nmol/L [^3H]-pyrilamine (manufactured by PerkinElmer) (final concentration: 2 nmol/L) was added and mixed. After the mixture was incubated at a room temperature for 30 minutes, the reaction solution was collected on a glass filter by a cell harvester (manufactured by Molecular Devices), and then the filter was washed with the incubation buffer. The glass filter was cut off and transferred in a vial. To the vial was added 5 mL of a scintillator (manufactured by National Diagnostics), and the mixture was shaken for not less than one hour. Thereafter, the radioactive concentration was measured by a liquid scintillation counter.

In assay [1] the test system is histamine-induced skin reaction in rat. The assay is described as follows: Histamine-induced skin reaction test in rat (Test Example 3). Type of assay: in vivo. The note with it: oral, histamine 10 μg/0.1 mL/site intradermal, pigment area, read-out: Skin reaction test in rat ID50. How it is done:
[…] One hour after the administration, a 1% Evans Blue physiological saline solution (Tokyo Chemical Industry Co., Ltd.) was administered into the caudal vein in a dose of 5 mL/kg, and immediately histamine 10 μg/0.1 mL/site (manufactured by Wako Pure Chemical Industries, Ltd.) was intradermally administered into the dorsum. Thirty minutes after the administration, the rat was anesthetized with diethyl ether and then euthanized by cervical dislocation. The skin was ablated, and the major axis and minor axis of a spot of the pigment exuded into the skin were measured to calculate the area of the pigment.

Another assay addresses T2, human H1 receptor (Homo sapiens, UniProt P35367).
T2 construct: purchased; host or cells: CHO cells
The assay is described as follows: Human H1 receptor affinity test (Test Example 2). Type of assay: binding. The note with it: CHO cell membrane preparation expressing human H1 receptor, [3H]-pyrilamine 2 nmol/L. On the procedure:
Chinese hamster ovarian cells (CHO cells) having human H1 receptor forcibly express were purchased and used as an H1 receptor membrane preparation. […] To the resulting each sample, 50 μL of 8 nmol/L [^3H]-pyrilamine (final concentration: 2 nmol/L) was added and mixed. […] The glass filter was cut off and transferred in a vial. To the vial was added 5 mL of a scintillator (manufactured by National Diagnostics), and the mixture was shaken for not less than one hour. Thereafter, the radioactive concentration was measured by a liquid scintillation counter.

Assay [2] has as its system histamine-induced skin reaction in mouse. The assay can be described thus: Skin reaction test in mouse (Test Example 4). Type of assay: in vivo. To be noted: oral, histamine 3 μg/50 μL/site intradermal, pigment area, read-out: Skin reaction test in mouse ID50. On the procedure: Each mouse was sheared the day before test and fasted overnight. A low, middle or high dose of each test compound suspended in a 0.5% (W/V) CMC-Na aqueous solution was orally administered to the mouse. One hour after the administration, a 1% Evans Blue physiological saline solution (Tokyo Chemical Industry Co., Ltd.) was administered into the caudal vein in a dose of 10 mL/kg, and immediately histamine 3 μg/50 μL/site was intradermally administered into the dorsum. Thirty minutes after the administration, the mouse was anesthetized with diethyl ether and then euthanized by cervical dislocation. The skin was ablated, and the major axis and minor axis of a spot of the pigment exuded into the skin were measured to calculate the area of the pigment.

The test system of assay [3] is mouse IgE-dependent ear edema model. The assay can be described thus: Inhibitory effects on mouse IgE-dependent ear edema model (Test Example 8).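 On all read-outs here: 5 or 10 times the mouse skin-reaction ID50 per dose.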 The class given is in vivo. To be noted: oral twice a day, dose a multiple of mouse ID50 (Dose column of Table E); for Inhibitory effects in each allergic reaction phase: Immediate phase: mouse ear swelling 1 hour after antigen; for Inhibitory effects in each allergic reaction phase: Late phase: mouse ear swelling 24 hours after antigen; for Inhibitory effects in each allergic reaction phase: Very late phase: mouse ear swelling 7 days after antigen. How it is done: (§1) To each mouse, 0.25 mL of an anti-DNP-IgE antibody (manufactured by SIGMA-ALDRICH) was intravenously administered for passive sensitization. On the day following the administration, an antigen (DNFB solution; manufactured by Wako Pure Chemical Industries, Ltd.) was applied on the right ear to induce dermatitis (ear swelling). One hour, 24 hours and 7 days after the application of the antigen, the thickness of the right ear was measured by a thickness measuring apparatus (dial thickness gauge). […] The thickness of the right ear before the sensitization was measured beforehand; the inhibition rates of the swelling in immediate phase, late phase, and very late phase were calculated.

The test system is the same in assay [4]. The assay is described as follows: Inhibitory effects on mouse IgE-dependent ear edema model (Test Example 5).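 On all read-outs here: doses given 1 h before and 6 h after antigen.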 Type of assay: in vivo. The note with it: oral twice a day, dose one-third of ID50 (Dose column of Table D); for Inhibitory effects in each allergic reaction phase: Immediate phase: mouse ear swelling 1 hour after antigen; for Inhibitory effects in each allergic reaction phase: Late phase: mouse ear swelling 24 hours after antigen; for Inhibitory effects in each allergic reaction phase: Very late phase: mouse ear swelling 7 days after antigen. On the procedure: as §1

T2 sequence (P35367 whole entry): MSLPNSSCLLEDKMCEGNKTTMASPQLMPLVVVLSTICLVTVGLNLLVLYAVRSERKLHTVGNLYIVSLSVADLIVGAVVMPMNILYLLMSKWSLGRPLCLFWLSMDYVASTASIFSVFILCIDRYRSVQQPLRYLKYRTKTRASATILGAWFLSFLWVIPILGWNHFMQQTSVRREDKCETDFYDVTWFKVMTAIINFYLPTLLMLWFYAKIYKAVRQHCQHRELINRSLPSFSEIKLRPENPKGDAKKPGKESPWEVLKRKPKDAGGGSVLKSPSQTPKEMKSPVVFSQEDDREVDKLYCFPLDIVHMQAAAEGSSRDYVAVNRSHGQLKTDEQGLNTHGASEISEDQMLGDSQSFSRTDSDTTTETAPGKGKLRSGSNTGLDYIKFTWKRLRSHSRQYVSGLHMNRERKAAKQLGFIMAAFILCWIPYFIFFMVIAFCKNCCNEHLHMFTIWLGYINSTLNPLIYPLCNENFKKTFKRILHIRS
T1 sequence (P31390 whole entry): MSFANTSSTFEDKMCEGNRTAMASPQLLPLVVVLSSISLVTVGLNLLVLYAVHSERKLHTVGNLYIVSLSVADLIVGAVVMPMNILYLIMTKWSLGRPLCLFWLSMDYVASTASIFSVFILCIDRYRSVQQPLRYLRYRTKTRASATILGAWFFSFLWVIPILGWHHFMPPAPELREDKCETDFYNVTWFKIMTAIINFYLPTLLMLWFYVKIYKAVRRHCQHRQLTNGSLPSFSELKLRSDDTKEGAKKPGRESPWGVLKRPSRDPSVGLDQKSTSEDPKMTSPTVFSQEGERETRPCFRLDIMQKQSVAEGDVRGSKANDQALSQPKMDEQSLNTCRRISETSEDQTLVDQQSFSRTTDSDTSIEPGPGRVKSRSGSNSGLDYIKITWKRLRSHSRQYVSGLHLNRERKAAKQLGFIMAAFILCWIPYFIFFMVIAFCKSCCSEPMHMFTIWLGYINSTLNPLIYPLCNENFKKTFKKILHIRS

By pIC50 is commonly meant the negative decadic logarithm of the IC50, by convention in mol/L. As to `O=C(O)CCCN1CCC(O[C@@H](c2ccc(Cl)cc2)c2ccccn2)CC1` [Bepotastine], the pIC50 at rat H1 receptor was 6.77; at human H1 receptor, 7.70. For the same compound, the ED50 worked out at 0.5 mg/kg in assay [1] and 0.02 mg/kg in assay [2].

Regarding `O=C(O)c1cccc(CN2CCC(OC(c3ccccc3)c3ccccc3)CC2)n1` [Example 2, 6-(4-benzhydryloxypiperidin-1-ylmethyl)pyridine-2-carboxylic acid], the pIC50 is 7.60 against rat H1 receptor and 8.00 against human H1 receptor. The ED50 in assay [1] was determined as 3.4 mg/kg; in assay [2], 0.1 mg/kg. For the same compound, the entries for the “Inhibitory effects in each allergic reaction phase: Immediate phase” value (from here on “Inhibitory effects … Immediate phase”) in assay [3] and in assay [4] were “++ (++ Inhibitory rate 45 to 20%)” and “++ (++ Inhibitory rate 45 to 25%)”, respectively. In addition, the “Inhibitory effects in each allergic reaction phase: Late phase” value in assay [3] is on record as “++ (++ Inhibitory rate 45 to 20%)”; in assay [4], “++ (++ Inhibitory rate 45 to 25%)”. The “Inhibitory effects in each allergic reaction phase: Very late phase” value (shortened to “Inhibitory effects … Very late phase”) is reported as “+ (+ Inhibitory rate 19 to 10%)” in assay [3] and “+ (+ Inhibitory rate 24 to 10%)” in assay [4].

As to `O=C(O)c1cc(CN2CCC(OC(c3ccccc3)c3ccccc3)CC2)cs1` [Example 5], the pIC50 against rat H1 receptor was 8.15; against human H1 receptor, 8.00. The ED50 in assay [1] is 1.8 mg/kg; in assay [2] it was 0.11 mg/kg.

Regarding `O=C(O)c1cccc(CN2CCN(C(c3ccc(F)cc3)c3ccc(F)cc3)CC2)n1` [Example 11, 6-{4-[bis(4-fluorophenyl)methyl]piperazin-1-ylmethyl}pyridine-2-carboxylic acid], the pIC50 against rat H1 receptor was 6.55; against human H1 receptor, 7.66. Further, the ED50 in assay [1] turned out to be 0.3 mg/kg; in assay [2] it was 0.01 mg/kg. For the same compound, the “Inhibitory effects … Immediate phase” value in assay [3] was “++ (++ Inhibitory rate 45 to 20%)”; in assay [4], “++ (++ Inhibitory rate 45 to 25%)”. The “Inhibitory effects in each allergic reaction phase: Late phase” value in assay [3] is “++ (++ Inhibitory rate 45 to 20%)”; in assay [4], “++ (++ Inhibitory rate 45 to 25%)”. Moreover, the “Inhibitory effects … Very late phase” value in assay [3] was “++ (++ Inhibitory rate 45 to 20%)”; in assay [4] it was “++ (++ Inhibitory rate 45 to 25%)”.

`O=C(O)c1cccc(CN2CCC(OC(c3ccccc3)c3ccc(Cl)cc3)CC2)n1` (centres unmarked) [Example 22]: the results for the pIC50 against rat H1 receptor and against human H1 receptor were 8.24 and 7.89, respectively. The ED50 in assay [1] is 0.5 mg/kg; in assay [2] it was 0.01 mg/kg.

Turning to `O=C(O)c1ccnc(CN2CCC(OC(c3ccccc3)c3ccccc3)CC2)c1` [Example 27], on rat H1 receptor, the pIC50 is 7.51. The pIC50 against human H1 receptor is 8.05. Besides, in assay [3], the “Inhibitory effects … Immediate phase” value is given as “++ (++ Inhibitory rate 45 to 20%)”, the “Inhibitory effects in each allergic reaction phase: Late phase” value is recorded as “++ (++ Inhibitory rate 45 to 20%)” and the “Inhibitory effects … Very late phase” value is “++ (++ Inhibitory rate 45 to 20%)”. Moreover, the ED50 in assay [2] was 0.03 mg/kg.

Consider `O=C(O)c1cccc(C(F)(F)N2CCC(OC(c3ccccc3)c3ccccc3)CC2)n1` [Example 37, 6-[(4-Benzhydryloxypiperidin-1-yl)difluoromethyl]pyridine-2-carboxylic acid], for which the results for the pIC50 against rat H1 receptor and at human H1 receptor were 7.12 and 7.92, respectively. The figures for the ED50 in assay [1] and in assay [2] were 3.2 mg/kg and 0.06 mg/kg, respectively.

For `O=C(O)c1ccnc(CN2CCC(OC(c3ccccc3)c3ccc(F)cc3)CC2)c1` (centres unmarked) [Example 39], the pIC50 is 7.14 at rat H1 receptor and 8.17 at human H1 receptor. Further, the values for the ED50 in assay [1] and in assay [2] were 1.3 mg/kg and 0.04 mg/kg, respectively. For the same compound, the entries for the “Inhibitory effects … Immediate phase” value in assay [3] and in assay [4] were “++ (++ Inhibitory rate 45 to 20%)” and “++ (++ Inhibitory rate 45 to 25%)”, respectively. Moreover, the “Inhibitory effects in each allergic reaction phase: Late phase” value in assay [3] is reported as “++ (++ Inhibitory rate 45 to 20%)”; in assay [4], “++ (++ Inhibitory rate 45 to 25%)”. In addition, the entries for the “Inhibitory effects … Very late phase” value in assay [3] and in assay [4] were “++ (++ Inhibitory rate 45 to 20%)” and “++ (++ Inhibitory rate 45 to 25%)”, respectively.

Turning to `O=C(O)c1cccc(CN2CCC(OC(c3ccccc3)c3ccc(F)c(F)c3)CC2)n1` (centres unmarked) [Example 48], the pIC50 was 7.28 against rat H1 receptor and 7.60 on human H1 receptor. Also, the values for the ED50 in assay [1] and in assay [2] were 2.9 mg/kg and 0.05 mg/kg, respectively.

Consider `O=C(O)c1cccc(CN2CCC(=C3c4ccc(Cl)cc4CCc4cccnc43)CC2)c1` [Example 67, 3-[4-(8-Chloro-5,6-dihydrobenzo[5,6]cyclohepta[1,2-b]pyridin-11-ylidene)piperidin-1-ylmethyl]benzoic acid], for which the ED50 is 1.2 mg/kg in assay [1] and 0.09 mg/kg in assay [2].

For `O=C(O)c1cccc(CN2CCC(=C3c4ccccc4C=Cc4cccnc43)CC2)c1` [Example 70], the pIC50 on rat H1 receptor was 7.55; on human H1 receptor, 7.85. In addition, the figures for the ED50 in assay [1] and in assay [2] were 1.6 mg/kg and 0.12 mg/kg, respectively.

As for `O=C(O)c1cccc(CN2CCC(=C3c4ccccc4C=Cc4cccnc43)CC2)n1` [Example 71], the pIC50 was 7.80 against rat H1 receptor and 7.85 on human H1 receptor. The ED50 amounted to 0.6 mg/kg in assay [1] and 0.07 mg/kg in assay [2].

In the case of `O=C(O)c1cccc(CN2CC[C@H](OC(c3ccccc3)c3ccccc3)C2)n1` [Example 129, 6-((S)-3-Benzhydryloxypyrrolidin-1-ylmethyl)pyridine-2-carboxylic acid], on human H1 receptor, the pIC50 is 8.29. In addition, in assay [3], the “Inhibitory effects … Immediate phase” value is on record as “++ (++ Inhibitory rate 45 to 20%)”, the “Inhibitory effects in each allergic reaction phase: Late phase” value is listed as “++ (++ Inhibitory rate 45 to 20%)” and the “Inhibitory effects … Very late phase” value is reported as “++ (++ Inhibitory rate 45 to 20%)”. Moreover, the ED50 in assay [2] was 0.04 mg/kg.

`CN(C)CC/C=C1/c2ccccc2COc2ccc(CC(=O)O)cc21` [Olopatadine]: in assay [3], the “Inhibitory effects … Immediate phase” value is “++ (++ Inhibitory rate 45 to 20%)”, the “Inhibitory effects in each allergic reaction phase: Late phase” value is on record as “− (− Inhibitory rate less than 10%)” and the “Inhibitory effects … Very late phase” value is recorded as “− (− Inhibitory rate less than 10%)”. Moreover, in assay [4], the “Inhibitory effects … Immediate phase” value is “++ (++ Inhibitory rate 45 to 25%)”, the “Inhibitory effects in each allergic reaction phase: Late phase” value is “− (− Inhibitory rate less than 10%)” and the “Inhibitory effects … Very late phase” value was “+ (+ Inhibitory rate 24 to 10%)”.
